# How the values were obtained:
# [1] = biological target: T1, α4β1 (Homo sapiens, UniProt P05556+P13612); test: Ramos Cell Adhesion Assay (α4β1 Mediated Adhesion/VCAM-1); type: cell-based; conditions: Ramos cell adhesion to hVCAM-1; read-out: α4β1 IC50
# T1 construct: Ramos Cell Adhesion Assay (α4β1 Mediated Adhesion/VCAM-1); endogenous in cells; host or cells: Ramos cells
# In short: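 Plates coated overnight at 4° C with recombinant hVCAM-1 at 4.0 μg/mL, pH 9.0, then blocked in PBS/1% BSA. Calcein AM-labeled Ramos cells added with compounds and left to adhere 1 h at room temperature; after washing, cells lysed in 1 M Tris pH 8.0/1% SDS.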
# [2] = biological target: T2, human α4β7 integrin (Homo sapiens, UniProt P13612+P26010); test: α4β7-K562 Cell Adhesion Assay (α4β7 Mediated Adhesion/MAdCAM-1); type: cell-based; conditions: α4β7-K562 cell adhesion to hMAdCAM-1; read-out: α4β7 IC50
# T2 construct: expressed in transfected cells; host or cells: K562 cells, stably transfected
# T2 sequence (P13612 34-1032): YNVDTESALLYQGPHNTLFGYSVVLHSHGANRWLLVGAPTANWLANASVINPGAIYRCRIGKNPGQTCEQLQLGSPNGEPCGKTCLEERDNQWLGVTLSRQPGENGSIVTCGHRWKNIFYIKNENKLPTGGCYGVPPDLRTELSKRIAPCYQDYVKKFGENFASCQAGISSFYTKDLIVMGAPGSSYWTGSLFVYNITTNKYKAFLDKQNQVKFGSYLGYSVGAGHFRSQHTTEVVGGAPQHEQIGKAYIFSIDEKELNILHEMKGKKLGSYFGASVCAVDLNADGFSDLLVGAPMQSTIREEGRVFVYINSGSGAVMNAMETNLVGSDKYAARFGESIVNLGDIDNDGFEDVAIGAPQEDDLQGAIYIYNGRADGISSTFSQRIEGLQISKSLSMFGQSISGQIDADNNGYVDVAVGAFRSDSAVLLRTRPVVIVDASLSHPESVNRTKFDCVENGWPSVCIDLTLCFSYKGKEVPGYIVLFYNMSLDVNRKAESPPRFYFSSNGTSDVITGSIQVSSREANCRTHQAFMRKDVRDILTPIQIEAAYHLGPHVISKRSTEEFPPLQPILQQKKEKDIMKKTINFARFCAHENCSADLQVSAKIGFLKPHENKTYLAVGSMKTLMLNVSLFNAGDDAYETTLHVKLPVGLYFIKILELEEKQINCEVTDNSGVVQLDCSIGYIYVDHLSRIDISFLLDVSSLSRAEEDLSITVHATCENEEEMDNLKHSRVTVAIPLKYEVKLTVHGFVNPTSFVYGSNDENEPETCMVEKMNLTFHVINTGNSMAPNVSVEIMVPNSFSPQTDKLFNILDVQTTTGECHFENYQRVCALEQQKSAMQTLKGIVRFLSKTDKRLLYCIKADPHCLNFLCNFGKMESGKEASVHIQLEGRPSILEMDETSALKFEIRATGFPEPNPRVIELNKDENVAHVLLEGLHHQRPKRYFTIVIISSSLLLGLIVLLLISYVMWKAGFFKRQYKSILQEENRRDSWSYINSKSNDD
# T2 sequence (P26010 20-798): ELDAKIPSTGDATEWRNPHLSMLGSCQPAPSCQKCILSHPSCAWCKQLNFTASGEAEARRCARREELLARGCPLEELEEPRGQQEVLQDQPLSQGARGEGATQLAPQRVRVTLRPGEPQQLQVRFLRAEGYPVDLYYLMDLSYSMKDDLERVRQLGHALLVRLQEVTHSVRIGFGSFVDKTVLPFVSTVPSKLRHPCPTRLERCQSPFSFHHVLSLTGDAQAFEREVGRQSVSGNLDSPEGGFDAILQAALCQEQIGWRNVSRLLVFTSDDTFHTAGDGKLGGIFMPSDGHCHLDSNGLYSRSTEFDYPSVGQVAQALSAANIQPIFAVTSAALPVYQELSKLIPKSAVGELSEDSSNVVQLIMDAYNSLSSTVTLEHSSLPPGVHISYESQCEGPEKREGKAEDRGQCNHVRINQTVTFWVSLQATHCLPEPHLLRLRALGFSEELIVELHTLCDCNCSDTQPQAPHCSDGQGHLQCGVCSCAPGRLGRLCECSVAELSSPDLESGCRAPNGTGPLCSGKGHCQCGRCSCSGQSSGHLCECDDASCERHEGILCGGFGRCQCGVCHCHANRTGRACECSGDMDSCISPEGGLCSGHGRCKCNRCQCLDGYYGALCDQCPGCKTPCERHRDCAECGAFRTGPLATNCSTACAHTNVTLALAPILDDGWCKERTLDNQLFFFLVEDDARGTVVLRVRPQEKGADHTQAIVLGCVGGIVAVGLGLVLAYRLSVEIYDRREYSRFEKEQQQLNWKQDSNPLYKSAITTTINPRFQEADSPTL
# In short: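 Anti-FLAG plates coated 1 h at 4° C with FLAG-hMAdCAM-1 in PBS pH 7.4, 1% BSA, 1 mM Mn2+. Stably transfected K562 cells expressing human α4β7, labelled with CFDA-SE, adhered with compound 1 h at room temperature. After four washes, bound cells lysed in 0.1 M NaOH for fluorescence read-out.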
# T1 sequence (P05556 21-798, one chain of several): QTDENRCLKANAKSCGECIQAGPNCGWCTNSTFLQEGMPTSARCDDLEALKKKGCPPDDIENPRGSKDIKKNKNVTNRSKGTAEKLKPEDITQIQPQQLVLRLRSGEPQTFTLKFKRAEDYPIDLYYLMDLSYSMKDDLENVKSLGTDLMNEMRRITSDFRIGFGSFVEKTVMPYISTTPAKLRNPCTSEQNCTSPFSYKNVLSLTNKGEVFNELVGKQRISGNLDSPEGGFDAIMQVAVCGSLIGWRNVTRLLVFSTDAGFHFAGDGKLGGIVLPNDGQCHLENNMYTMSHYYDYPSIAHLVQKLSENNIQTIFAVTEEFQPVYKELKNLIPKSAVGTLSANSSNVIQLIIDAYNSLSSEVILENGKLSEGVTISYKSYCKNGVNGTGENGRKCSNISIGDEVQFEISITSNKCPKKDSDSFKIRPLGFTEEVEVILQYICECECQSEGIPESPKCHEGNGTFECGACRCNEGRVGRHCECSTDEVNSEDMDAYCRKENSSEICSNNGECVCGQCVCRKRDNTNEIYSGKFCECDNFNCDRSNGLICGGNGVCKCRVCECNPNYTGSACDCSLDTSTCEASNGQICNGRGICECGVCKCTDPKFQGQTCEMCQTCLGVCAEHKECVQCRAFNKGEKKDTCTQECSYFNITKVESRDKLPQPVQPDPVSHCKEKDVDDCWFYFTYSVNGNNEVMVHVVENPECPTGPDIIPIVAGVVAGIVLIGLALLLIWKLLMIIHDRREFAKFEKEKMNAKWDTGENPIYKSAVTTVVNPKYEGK
IC50 [1] [nM],IC50 [2] [nM],SMILES
> 5000,721,COc1cnn(CCN2CCOCC2)c(=O)c1-c1ccc(C[C@H](NC(=O)[C@H](NC(C)C)C(C)C)C(=O)O)cc1 [Cpd 179]
> 5000,731,COc1cnn(C)c(=O)c1-c1ccc(C[C@H](NC(=O)OC23CC4CC(CC(C4)C2)C3)C(=O)O)cc1 [Cpd 180]
> 5000,750,"COc1cnn(C)c(=O)c1-c1ccc(CC(NC(=O)C(N)C(C)C)C(=O)O)cc1 (stereo not shown) [Cpd 181, 2-(2-Amino-3-methyl-butyrylamino)-3-[4-(5-methoxy-2-methyl-3-oxo-2,3-dihydro-pyridazin-4-yl)-phenyl]-propionic acid]"
> 1000,785,COC(=O)[C@H](Cc1ccc(-c2c(OC)cnn(C)c2=O)cc1)NC(=O)[C@@H]1C2CCC(CC2)N1C(=O)CCc1ccccc1 [Cpd 182]
> 5000,813,COc1cnn(C)c(=O)c1-c1ccc(C[C@H](NC(=O)OC(C)C)C(=O)O)cc1 [Cpd 184]
> 5000,817,COc1cnn(C)c(=O)c1-c1ccc(C[C@H](NC(=O)C(C)(C)O)C(=O)O)cc1 [Cpd 185]
1530,842,COc1cnn(C)c(=O)c1-c1ccc(C[C@H](NC(=O)C2(C(=O)OC(C)(C)C)CCOCC2)C(=O)O)cc1 [Cpd 186]
> 5000,865,COc1cnn(C)c(=O)c1-c1ccc(C[C@H](NC(=O)c2n[nH]c3ccccc23)C(=O)O)cc1 [Cpd 187]
> 5000,922,COc1cc(N)c(Cl)cc1C(=O)N[C@@H](Cc1ccc(-c2c(OC)cnn(C)c2=O)cc1)C(=O)O [Cpd 188]
> 5000,937,COc1cnn(C)c(=O)c1-c1ccc(C[C@H](NC(=O)[C@@H](NC2CCCCC2)C(C)C)C(=O)O)cc1 [Cpd 189]
> 5000,979,Cn1ncc(N)c(-c2ccc(C[C@H](NC(=O)OC(C)(C)C)C(=O)O)cc2)c1=O [Cpd 190]
> 5000,999,COc1cnn(C)c(=O)c1-c1ccc(C[C@H](NC(=O)c2cccnc2O)C(=O)O)cc1 [Cpd 191]
> 5000,1160,COc1cnn(C)c(=O)c1-c1ccc(C[C@H](NC(=O)c2cccn(C)c2=O)C(=O)O)cc1 [Cpd 193]
> 5000,1220,COc1cnn(CCO)c(=O)c1-c1ccc(C[C@@H](CO)NC(=O)c2c(Cl)cccc2Cl)cc1 [Cpd 194]
> 5000,1290,"Cc1ccc(Oc2cnn(C(C)(C)C)c(=O)c2-c2ccc(C[C@H](NC(=O)c3c(Cl)cccc3Cl)C(=O)O)cc2)cc1 [Cpd 196, (S)-3-[4-(2-tert-Butyl-3-oxo-5-p-tolyloxy-2,3-dihydro-pyridazin-4-yl)-phenyl]-2-(2,6-dichloro-benzoylamino)-propionic acid]"
> 1000,1320,Nc1cnn(-c2ccccc2)c(=O)c1-c1ccc(C[C@H](NC(=O)c2c(Cl)cccc2Cl)C(=O)O)cc1 [Cpd 197]
> 5000,1340,COc1cnn(C)c(=O)c1-c1ccc(C[C@H](NC(=O)C2CCNCC2)C(=O)O)cc1 [Cpd 198]
> 5000,1440,COc1cnn(C)c(=O)c1-c1ccc(C[C@H](NC(=O)OCc2cccs2)C(=O)O)cc1 [Cpd 201]
> 5000,1480,COc1cnn(C)c(=O)c1-c1ccc(C[C@H](NC(=O)C2CCN(C(=O)OC(C)(C)C)CC2)C(=O)O)cc1 [Cpd 202]
> 5000,1780,COc1cnn(C)c(=O)c1-c1ccc(C[C@H](NC(=O)OCc2c(C)cc(C)cc2C)C(=O)O)cc1 [Cpd 203]
> 5000,1870,COc1cnn(C)c(=O)c1-c1ccc(C[C@H](NC(=O)OCc2c(Cl)cccc2Cl)C(=O)O)cc1 [Cpd 204]
> 5000,2320,COc1cnn(C)c(=O)c1-c1ccc(C[C@H](NC(=O)c2cnc[nH]2)C(=O)O)cc1 [Cpd 205]
3300,2550,COc1cnn(C)c(=O)c1-c1ccc(C[C@H](NC(=O)CCC(C)(C)C)C(=O)O)cc1 [Cpd 206]

# From patent US20050192279A1, “Pyridazinones as antagonists of alpha4 integrins” (priority 2004, published 2005)
